Read-outs that look alike come from different tables or passages of the source.
Assays:
Human whole blood IFN-γ = experiment: Assay 10: Human Whole Blood IFN-γ Assay; type: cell-based; conditions: anti-CD3 and anti-CD28 stimulation, 100% = 3 μM reference compound, read-out: INFg Whole Blood Normalized Agonist EC50
Procedure: Assay 10: Human Whole Blood IFN-γ Assay
Human venous whole blood (22.5 μL per well), obtained from healthy donors, was pre-treated with compounds for one hour at 37° C. in a humidified 95% air/5% CO2 incubator. The blood was stimulated with 2.5 μL anti-human CD3 and anti-CD28 mAb at a final concentration of 1 μg/mL each for 24 hours at 37° C. IFN-7 in the supernatants was measured using AlphLISA kit (Cat #AL217).

Human whole blood pERK = experiment: Assay 11: DGK Human Whole Blood pERK Assay; type: cell-based; conditions: anti-CD3 stimulation, pERK positive within CD8 positive population, starting concentration 20 μM, read-out: DGK HWB pERK IC50
Procedure: Assay 11: DGK Human Whole Blood pERK Assay
Human whole blood ERK phosphorylation assay was performed with human venous whole blood obtained from healthy donors (drawn with Heparin as anti-coagulant). Serial dilutions of compounds (11 points, 3-fold) in DMSO were added to 384 well plates at 20 nL/well using an ECHO 550 acoustic dispenser (Labcyte) to achieve final starting concentration of 20 μM in assay. Heparinized human whole blood was added to the compound plate at 9 μL per well and incubated for one hour at 37° C. in a humidified 95%, air/5% CO2 incubator. After one hour of compound incubation, 1 μL of human anti-CD3 antibody (in-house) in the presence of cross-linking antibody goat anti-mouse IgG (4 μg/mL) was added to the well at 1 μg/mL final concentration for stimulation of pathway and additionally incubated for 15 minutes at 37° C. Stimulation was stopped by adding 90 μL Fix/Lyse buffer (BD 558049). Cells were washed and stained with anti-CD8 PE (BD 555635) antibodies for 60 minutes at room temperature, washed again, and permeabilized on ice using Perm III buffer (BD 558050) for 30 minutes. Cells were then stained with an Alexa Fluor® 647 anti-ERK1/2 Phospho (Thr202/Tyr204) Antibody (Bioleged 675504) for 60 minutes at 1:50 dilution. Samples were washed and resuspended in dPBS containing 1% BSA (dPBS, Gibco 14190136; BSA, Sigma-Aldrich A9205). Samples analyzed using the Intellicyt® iQue Screener PLUS. The pERK activation was quantitated by the percentage of pERK positive population within CD8 positive population.

DGKα = DGKα (Homo sapiens (Human), UniProt P23743); experiment: Assay 1: In Vitro DGK Inhibition Assays, Method A (DGKα LIPGLO, extruded liposome); type: biochemical; conditions: extruded liposome substrate, 150 μM ATP
Procedure: (§1) Assay 1: In Vitro DGK Inhibition Assays—Method A
(§2) The DGKα and DGKζ reactions were performed using either extruded liposome (DGKα and DGKζ LIPGLO assays) or detergent/lipid micelle substrate (DGKα and DGKζ assays). The reactions were carried out in 50 mM MOPS pH 7.5, 100 mM NaCl, 10 mM MgCl2, 1 μM CaCl2), and 1 mM DTT (assay buffer). The reactions using a detergent/lipid micelle substrate also contained 50 mM octyl B-D-glucopyranoside. The lipid substrate concentrations were 11 mM PS and 1 mM DAG for the detergent/lipid micelle reactions. The lipid substrate concentrations were 2 mM PS, 0.25 mM DAG, and 2.75 mM PC for the extruded liposome reactions. The reactions were carried out in 150 μM ATP. The enzyme concentrations for the DGKα and DGKζ were 5 nM
(§3) The compound inhibition studies were carried out as follows: 50 nL droplets of each test compound (top concentration 10 mM with 11 point, 3-fold dilution series for each compound) solubilized in DMSO were transferred to wells of a white 1536 well plate (Corning 3725). A 5 mL enzyme/substrate solution at 2× final reaction concentration was prepared by combining 2.5 mL 4× enzyme solution (20 nM DGKα or DGKζ (prepared as described below) in assay buffer) and 2.5 mL of either 4× liposome or 4× detergent/lipid micelle solution (compositions described below) and incubated at room temperature for 10 minutes. Next, 1 μL 2× enzyme/substrate solution was added to wells containing the test compound and reactions were initiated with the addition of 1 μL 300 uM ATP. The reactions were allowed to proceed for 1 hr, after which 2 μL Glo Reagent (Promega V9101) was added and incubated for 40 minutes. Next, 4 μL Kinase Detection Reagent was added and incubated for 30 minutes. Luminescence was recorded using an EnVision microplate reader. […] The compounds were evaluated at 11 concentrations to determine IC50.
(§4) The lipid composition was 5 mol % DAG (Avanti 8008110), 40 mol % PS (Avanti 840035P), and 55 mol % PC (Avanti 850457) at a total lipid concentration of 15.2 mg/mL for the 4× liposome solution. The PC, DAG, and PS were dissolved in chloroform, combined, and dried in vacuo to a thin film. The lipids were hydrated to 20 mM in 50 mM MOPS pH 7.5, 100 mM NaCl, 5 mM MgCl2, and were freeze-thawed five times. The lipid suspension was extruded through a 100 nm polycarbonate filter eleven times. […] The liposome preparation was stored at 4° C. for as long as four weeks.
(§5) Baculovirus amplification was achieved using infected Sf9 cells at 1:1500 virus/cell ratios, and grown for 65 hours at 27° C. post-transfection.
(§6) The cells were lysed using nitrogen cavitation method with a nitrogen bomb (Parr Instruments), and the lysates were clarified by centrifugation. […] The three steps column chromatography included nickel affinity resin capture (i.e. HisTrap FF crude, GE Healthcare), followed by size exclusion chromatography (i.e. HiLoad 26/600 Superdex 200 prep grade, GE Healthcare for DGK-alpha, and HiPrep 26/600 Sephacryl S 300_HR, GE Healthcare for DGK-zeta). The third step was ion exchange chromatography, and differed for the two isoforms. DGKα was polished using Q-Sepharose anion exchange chromatography (GE Healthcare). DGKζ was polished using SP Sepharose cation exchange chromatography (GE Healthcare). The proteins were delivered at concentrations of ≥2 mg/mL. The formulation buffers were identical for both proteins: 50 mM Hepes, pH 7.2, 500 mM NaCl, 10% v/v glycerol, 1 mM TCEP, and 0.5 mM EDTA.

DGKζ = DGKζ (Homo sapiens (Human), UniProt Q13574); experiment: Assay 1 or 2: In Vitro DGK Inhibition Assays (DGKζ LIPGLO, extruded liposome); type: biochemical; conditions: extruded liposome substrate, 150 μM ATP
Procedure: as §1, §2, §3, §4, §5, §6
Assay 2: In Vitro DGK Inhibition Assays—Method B
The DGKα and DGKζ reactions were performed using either extruded liposome (DGKα and DGKζ LIPGLO assays) or detergent/lipid micelle substrate (DGKα and DGKζ assays).

DGKα, sequence (P23743 whole entry): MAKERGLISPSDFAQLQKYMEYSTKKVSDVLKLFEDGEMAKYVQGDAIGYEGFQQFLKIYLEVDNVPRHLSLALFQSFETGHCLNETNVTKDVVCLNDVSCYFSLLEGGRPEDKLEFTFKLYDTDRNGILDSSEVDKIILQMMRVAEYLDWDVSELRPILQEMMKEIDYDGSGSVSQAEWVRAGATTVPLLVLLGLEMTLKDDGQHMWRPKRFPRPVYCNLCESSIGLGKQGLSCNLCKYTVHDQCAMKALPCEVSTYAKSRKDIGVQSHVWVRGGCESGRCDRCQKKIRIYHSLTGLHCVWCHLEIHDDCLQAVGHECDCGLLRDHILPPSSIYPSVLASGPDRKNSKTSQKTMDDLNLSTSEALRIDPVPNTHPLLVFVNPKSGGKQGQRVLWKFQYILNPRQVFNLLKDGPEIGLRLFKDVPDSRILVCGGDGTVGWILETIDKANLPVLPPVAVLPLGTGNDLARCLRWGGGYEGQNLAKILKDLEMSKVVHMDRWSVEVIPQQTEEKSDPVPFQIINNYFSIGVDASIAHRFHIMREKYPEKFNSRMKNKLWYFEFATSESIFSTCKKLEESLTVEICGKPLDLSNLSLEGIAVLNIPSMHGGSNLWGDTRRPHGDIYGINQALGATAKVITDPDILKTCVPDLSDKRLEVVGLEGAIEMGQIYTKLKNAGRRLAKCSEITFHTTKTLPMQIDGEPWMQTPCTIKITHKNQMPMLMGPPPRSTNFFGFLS
DGKζ, sequence (Q13574 other isoform, or with tags, fused parts or gaps): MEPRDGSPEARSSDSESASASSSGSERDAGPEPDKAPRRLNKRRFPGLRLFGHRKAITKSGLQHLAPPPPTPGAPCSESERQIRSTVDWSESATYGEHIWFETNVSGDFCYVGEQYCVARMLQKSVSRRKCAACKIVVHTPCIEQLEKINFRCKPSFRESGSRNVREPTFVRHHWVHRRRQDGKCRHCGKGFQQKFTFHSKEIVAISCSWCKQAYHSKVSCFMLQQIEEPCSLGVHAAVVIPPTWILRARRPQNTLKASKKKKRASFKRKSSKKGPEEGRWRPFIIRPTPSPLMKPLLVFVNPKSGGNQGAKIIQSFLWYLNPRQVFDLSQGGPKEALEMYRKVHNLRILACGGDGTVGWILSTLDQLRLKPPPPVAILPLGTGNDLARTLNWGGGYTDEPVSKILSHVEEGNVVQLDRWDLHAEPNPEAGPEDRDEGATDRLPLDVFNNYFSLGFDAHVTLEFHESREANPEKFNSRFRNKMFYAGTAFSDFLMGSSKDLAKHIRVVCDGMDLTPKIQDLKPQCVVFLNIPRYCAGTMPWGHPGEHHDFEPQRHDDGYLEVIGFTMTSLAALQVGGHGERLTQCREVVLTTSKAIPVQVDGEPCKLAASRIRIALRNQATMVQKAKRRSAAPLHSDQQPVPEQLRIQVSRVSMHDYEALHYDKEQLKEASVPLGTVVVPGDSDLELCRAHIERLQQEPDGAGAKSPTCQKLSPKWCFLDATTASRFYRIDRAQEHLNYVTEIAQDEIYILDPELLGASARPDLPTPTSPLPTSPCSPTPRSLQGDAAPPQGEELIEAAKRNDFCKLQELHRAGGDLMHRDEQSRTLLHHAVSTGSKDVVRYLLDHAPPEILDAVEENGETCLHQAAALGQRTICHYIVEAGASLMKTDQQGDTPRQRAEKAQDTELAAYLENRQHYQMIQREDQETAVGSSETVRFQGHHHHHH

Compound	IC50 (Human whole blood pERK; Homo sapiens, CD8 positive)	IC50 (DGKα)	IC50 (DGKζ)	IC50 (Human whole blood pERK)	EC50 (Human whole blood IFN-γ; 24 hours)	EC50 (Human whole blood IFN-γ; Homo sapiens, 24 h)
C[C@@H]1CN(c2cc(=O)n(C)c3ccc(C#N)nc23)[C@@H](C)CN1C(C(=O)Nc1ccn(C)n1)c1ccc(F)cc1 (stereo partly drawn) [Example 16, 2-((2R,5S)-4-(6-cyano-1-methyl-2-oxo-1,2-dihydro-1,5-naphthyridin-4-yl)-2,5-dimethylpiperazin-1-yl)-2-(4-fluorophenyl)-N-(1-methyl-1H-pyrazol-3-yl)acetamide]		0.5 µM	1.34 µM	5.93 µM	14.4 µM	
C#CCCC1(CCCOC(=O)C(c2ccc(F)cc2)N2C[C@H](C)N(c3cc(=O)n(C)c4ccc(C#N)nc34)C[C@H]2C)N=N1 (stereo partly drawn) [Example 57, 3-(3-(but-3-yn-1-yl)-3H-diazirin-3-yl)propyl 2-((2R,5S)-4-(6-cyano-1-methyl-2-oxo-1,2-dihydro-1,5-naphthyridin-4-yl)-2,5-dimethylpiperazin-1-yl)-2-(4-fluorophenyl)acetate]		0.07 µM	0.19 µM			0.12 µM
C[C@@H]1CN(c2cc(=O)n(C)c3ccc(C#N)nc23)[C@@H](C)CN1C(C(=O)OCCC1(C)N=N1)c1ccc(F)cc1 (stereo partly drawn) [Example 62, 2-(3-methyl-3H-diazirin-3-yl)ethyl 2-((2R,5S)-4-(6-cyano-1-methyl-2-oxo-1,2-dihydro-1,5-naphthyridin-4-yl)-2,5-dimethylpiperazin-1-yl)-2-(4-fluorophenyl)acetate]		0.08 µM	0.19 µM			0.57 µM
C[C@@H]1CN(c2cc(=O)n(C)c3ccc(C#N)nc23)[C@@H](C)CN1C(C(=O)Nc1ccn(C)n1)c1ccc(F)cc1 (stereo partly drawn) [Example 15, 2-((2R,5S)-4-(6-cyano-1-methyl-2-oxo-1,2-dihydro-1,5-naphthyridin-4-yl)-2,5-dimethylpiperazin-1-yl)-2-(4-fluorophenyl)-N-(1-methyl-1H-pyrazol-3-yl)acetamide]		279 µM	9.84 µM	20 µM		20 µM
C[C@@H]1CN(c2cc(=O)n(C)c3ccc(C#N)nc23)[C@@H](C)CN1C(C(=O)Nc1ccon1)c1ccc(F)cc1 (stereo partly drawn) [Example 29, 2-((2R,5S)-4-(6-cyano-1-methyl-2-oxo-1,2-dihydro-1,5-naphthyridin-4-yl)-2,5-dimethylpiperazin-1-yl)-2-(4-fluorophenyl)-N-(isoxazol-3-yl)acetamide]		5.57 µM	2.44 µM			3.75 µM

The next lines start with results.

IC50 (Human whole blood pERK; Homo sapiens, CD8 positive)	IC50 (DGKα)	IC50 (DGKζ)	IC50 (Human whole blood pERK)	Compound	EC50 (Human whole blood IFN-γ; 24 hours)	EC50 (Human whole blood IFN-γ; Homo sapiens, 24 h)
0.08 µM				CC(C)OC(=O)C(c1ccc(F)cc1)N1C[C@H](C)N(c2cc(=O)n(C)c3ccc(C#N)nc23)C[C@H]1C (single isomer, unassigned) [Example 2]	0.06 µM	
13.1 µM				CNC(=O)C(c1ccc(F)cc1)N1C[C@H](C)N(c2cc(=O)n(C)c3ccc(C#N)nc23)C[C@H]1C (stereo partly drawn) [Example 26, 2-((2R,5S)-4-(6-cyano-1-methyl-2-oxo-1,2-dihydro-1,5-naphthyridin-4-yl)-2,5-dimethylpiperazin-1-yl)-2-(4-fluorophenyl)-N-methylacetamide]	20 µM	
	0.83 µM	4.12 µM		CC(C)N(C)C(=O)CC(c1ccc(F)cc1)N1C[C@H](C)N(c2cc(=O)n(C)c3ccc(C#N)nc23)C[C@H]1C (stereo partly drawn) [Example 42, 3-[(2R,5S)-4-(6-cyano-1-methyl-2-oxo-1,2-dihydro-1,5-naphthyridin-4-yl)-2,5-dimethylpiperazin-1-yl]-3-(4-fluorophenyl)-N-methyl-N-(propan-2-yl)propanamide]	1.37 µM	
0.41 µM	1.14 µM	0.39 µM		CC(C)N(C)C(=O)CC(c1ccc(F)cc1)N1C[C@H](C)N(c2cc(=O)n(C)c3ccc(C#N)nc23)C[C@H]1C (stereo partly drawn) [Example 41, 3-[(2R,5S)-4-(6-cyano-1-methyl-2-oxo-1,2-dihydro-1,5-naphthyridin-4-yl)-2,5-dimethylpiperazin-1-yl]-3-(4-fluorophenyl)-N-methyl-N-(propan-2-yl)propanamide]		1.59 µM
